Reference: article PMC11558998, “Lipophilic bisphosphonates reduced cyst burden and ameliorated hyperactivity of mice chronically infected with Toxoplasma gondii” (mBio, 2024)

Experiments:
[1] = system: in vitro differentiated Me49 bradyzoites (cysts); assay: Vacuole size of in vitro differentiated Me49 cysts (DBA/SAG1 IFA); format: cell-based, Toxoplasma gondii; conditions: 4 days, ambient CO2
Experimental: (§1) Type II Me49 or Pru was differentiated using compound 1 as previously described ([50]). Confluent HFF monolayers on glass coverslips (preincubated for 2 hours with 3 µM compound 1, as described previously) were infected with 5 × 10^3 tachyzoites of the ME49 or Pru (type 2) or EGS (type I/III) strain (no compound 1 for EGS). The cells were allowed to grow and differentiate in a 37°C incubator with ambient CO2 for 3 days (EGS was allowed to spontaneously differentiate for 4 days). […] After 7 days (Me49) or 8 days (EGS) of incubation, the cells were fixed with 3% paraformaldehyde for 10 minutes, permeabilized with 0.25% Triton X-100 for 10 minutes, and then blocked in 3% bovine serum albumin for 1 hour. The coverslips were then incubated in DBA rhodamine (for Me49)([51]) or DBA lectin (a kind gift from Diego Huet for EGS) and anti-SAG1 rat antibody (a kind gift from Vern Carruthers) for 2 hours. Then, the secondary anti-rat 488 was used to visualize the SAG1 antibody. The cells were then mounted onto microscope slides with fluoromount and DAPI (4′,6-diamidino-2-phenylindole). The slides were placed in the fridge for a minimum of 24 hours before imaging on a Delta Vision microscope. The vacuole sizes were calculated using ImageJ software.

[2] = system: type I/III EGS strain cysts; assay: Vacuole size of spontaneously formed EGS cysts; format: cell-based, Toxoplasma gondii; conditions: EGS spontaneous cysts, 3x EC50, 4 days
Experimental: as §1

[3] = system: in vitro differentiated Me49 bradyzoites; assay: In vitro bradyzoite viability assay (plaques); format: cell-based, Toxoplasma gondii; conditions: Me49 bradyzoites treated 4 days at 3x and 5x EC50, then plaques 14 or 16 days, vs DMSO
Experimental: The protocol for in vitro viability assay was adapted from Zwicker et al. ([52]). Confluent HFF monolayers (preincubated for 2 hours with 3 µM compound 1) were infected with 5 × 10^3 tachyzoites of the ME49 (type 2) strain. After 24 hours, the compound 1 was removed to avoid toxicity to the host cells. The cells were allowed to grow and differentiate in a 37°C incubator with ambient CO2 for 3 days. […] After 7 days of differentiation, the cysts were collected by scraping the monolayers, syringe lysing the parasites, and treatment with acid/pepsin (170 mM sodium chloride, 60 mM hydrochloric acid, and 0.1 mg/mL pepsin) for 30 minutes in a 37°C water bath. The cysts were then neutralized with 94 mM sodium carbonate (Na2CO3) and enumerated. Ten thousand bradyzoites were plated per well in a six-well plate and allowed to grow undisturbed in a 37°C incubator with 5% CO2 for 14 or 16 days. At this time, cultures were fixed with 100% ethanol and stained with 2.5× crystal violet. The control DMSO plaque image is duplicated from Fig. 1E to be used as the representative image of plaques in Fig. 1D. Plaques were quantified using a light microscope using the 4× objective.

[4] = system: ex vivo bradyzoites of Me49-RFP from brains of chronically infected mice; assay: Ex vivo bradyzoite viability assay, Me49-RFP; format: cell-based, Toxoplasma gondii; conditions: inhibitors 4 hours then drug-free 14 days, 3x EC50
Experimental: (§2) Brains of chronically infected mice were collected, homogenized with seven strokes in a glass homogenizer, and then enumerated on a Delta Vision microscope [protocol adapted from reference ([45])]. Twenty-five cysts per plate were then placed in a tube for acid/pepsin (170 mM sodium chloride, 60 mM hydrochloric acid, and 0.1 mg/mL pepsin) treatment for 10 minutes in a 37°C water bath. The cysts were then neutralized with 94 mM Na2CO3. The liberated bradyzoites were then equally distributed into a 12-well plate. For the growth assay, the cells were grown in the presence of compounds or DMSO for 12 and 14 days undisturbed. For the viability assays, the cells were treated with compounds or DMSO for 4 hours before being washed with 1× PBS and then grown for 12 and 14 days in media without compounds. After 12 and 14 days, the cells were fixed with 100% ethanol and stained with 2.5× crystal violet. The control DMSO plaque image is duplicated from Fig. 2B to be used as the representative image of plaques in Fig. 2A. Plaques were quantified on a light microscope using the 4× objective and the size of the plaques was measured using Fiji (ImageJ) software.

[5] = system: ex vivo bradyzoites of the Pru strain from chronically infected mice; assay: Ex vivo bradyzoite growth assay, Pru; format: cell-based, Toxoplasma gondii; conditions: 3x EC50
Experimental: as §2

[6] = system: ex vivo bradyzoites of the Pru strain from chronically infected mice; assay: Ex vivo bradyzoite viability assay, Pru; format: cell-based, Toxoplasma gondii; conditions: 3x EC50
Experimental: as §2

[7] = system: RH-RFP tachyzoites in Swiss Webster mice; assay: Mice infected with a lethal dose of T. gondii (acute infection); format: in vivo, Toxoplasma gondii; conditions: 100 RH-RFP tachyzoites i.p., daily i.p. treatment for 10 days starting 6 hours after infection
Experimental: Experiments were carried out as described previously ([16]) using 100 T. gondii tachyzoites of the RH td-Tomato strain (RH-RFP) to infect female Swiss Webster mice. Drugs were dissolved in 10% Kolliphor HS-15 and were inoculated i.p. starting 6 hours after infection and administered for 10 days. The survival of mice was monitored along with their weight. Mice were sacrificed if they lost over 20% of their body weight. Surviving mice were challenged on day 30 post-infection with 10,000 RH-RFP tachyzoites. Blood was collected at 30 dpi (before challenge) and at the time of euthanasia (3 weeks post challenge) to analyze the presence of T. gondii antibodies. To test for antibodies, we ran a western blot with RH-RFP lysate protein and probed the membrane with the serum collected from the mice. Protein extraction and western blot conditions were as done previously ([20]). After blocking with 5% milk in PBS-T (0.1% Tween 20 in phosphate buffered saline [PBS]), we washed the membrane three times for 5 minutes with PBS-T and attached it to the BioRad multiscreen tool. The RH-RFP lysate was ran throughout the whole gel to allow for testing of different serum (antibodies) on the same membrane. […]

[8] = system: in vitro derived Pru cysts; assay: Vacuole size of in vitro derived Pru cysts; format: cell-based, Toxoplasma gondii
Experimental: as §1

[9] = system: Me49-RFP brain tissue cysts in Swiss Webster mice; assay: Treatment of Swiss Webster mice chronically infected with Me49-RFP; format: in vivo, Toxoplasma gondii; conditions: Swiss Webster mice, 5,000 Me49-RFP i.p., BPH-1218 at 1 mg/kg daily for 16 days
[10] = system: RH-RFP tachyzoites in Swiss Webster mice; conditions: RH parasites; cited from earlier work
[11] = system: Pru-GFP brain tissue cysts in Balb/c mice; assay: Treatment of Balb/c mice chronically infected with Pru-GFP; conditions: Balb/c mice, 1,500 Pru-GFP i.p., 1 mg/kg/day i.p. for 16 days from 28 dpi
Experimental: BALB/c male mice (Jackson Laboratory) were injected i.p. with a 200 µL suspension of 1,500 tachyzoites of the Pru-GFP strain T. gondii (type II genotype) (a gift from Laura Knoll). […] At 4 weeks post-infection, the brains of two mice were collected to check for the presence of cysts and to confirm that the mice were in the chronic stage. At this time, the remaining mice were injected i.p. daily for 16 consecutive days with 200 µL solvent (10% Kolliphor HS-15) or compounds dissolved in 10% HS-15. […] Mice were euthanized humanely 2 weeks after the final injection. The mouse brains were collected in 1 mL sterile PBS, minced with scissors, and homogenized using a glass homogenizer. Four 20 µL samples (80 µL total or 8% of sample) of each brain homogenate were placed on a glass microscope slide. Cysts were enumerated using a Delta Vision fluorescence microscope.

[12] = system: hyperactivity of Balb/c mice chronically infected with Pru-GFP; assay: CageDot continuous monitoring of mouse activity during chronic infection; conditions: 1 mg/kg/day i.p. 16 days, 15 dpt and 2 wpt
Experimental: At this time, the remaining mice were injected i.p. daily for 16 consecutive days with 200 µL solvent (10% Kolliphor HS-15) or compounds dissolved in 10% HS-15. […] Mice were euthanized humanely 2 weeks after the final injection.
Mice were monitored during the infection using the CageDot ([30], [31]), which detects vibrations. […] Data are collected at a 100 Hz sampling rate (each second, 100 data points were collected).

T. gondii = system: T. gondii; design: method as in PMID 17069459; conditions: cited from earlier work

| Compound | vacuole size ([1]; 5x EC50 against tachyzoites) | size of the vacuoles (cysts) [2] | number of plaques (bradyzoite viability) [3] | number of plaques, ex vivo viability [4] | number of plaques, ex vivo growth [5] | number of plaques, ex vivo viability [6] | protection against lethal acute infection (survival) [7] | vacuole size ([1]; 3x EC50 against tachyzoites) | vacuole size [8] | reduction of cyst burden [9] [%] | protection against lethal acute infection [10] | reduction of cyst burden [11] [%] | activity of infected mice (nightly average energy, CageDot) [12] | induction of bradyzoite-specific antigen 1 (T. gondii) | replication of T. gondii (T. gondii) |
| --- | --- | --- | --- | --- | --- | --- | --- | --- | --- | --- | --- | --- | --- | --- | --- |
| CCCCCCCCCCCn1cc[n+](CC(O)(P(=O)([O-])O)P(=O)(O)O)c1 (stereo not drawn) [BPH-1236] | diminished vacuole size | reduced the size of the vacuoles | plaque number was significantly reduced | reduced the viability of ex vivo bradyzoites | significant reduction in the number of plaques | significant reduction in the number of plaques | protected mice against the acute infection | – | – | – | – | – | – | – | – |
| CCCCCCCCCn1cc[n+](CC(O)(P(=O)([O-])O)P(=O)(O)O)c1 (stereo not drawn) [BPH-1238] | diminished vacuole size | reduced the size of the vacuoles | plaque number was significantly reduced | reduced the viability of ex vivo bradyzoites | significant reduction in the number of plaques | significant reduction in the number of plaques | – | – | – | – | – | – | – | – | – |
| CCCCCCCCCCn1cc[n+](CC(P(=O)([O-])O)P(=O)(O)O)c1 (stereo not drawn) [BPH-1218] | diminished vacuole size | reduced the size of the vacuoles | plaque number was significantly reduced | reduced the viability of ex vivo bradyzoites | significant reduction in the number of plaques | significant reduction in the number of plaques | – | showed the same effect on vacuole size | decreased the vacuole size | 73.6 | protected mice against a lethal acute infection | 74.0 | decreased the activity of the infected mice to similar levels of the control uninfected mice | – | – |
| CN1CCC(c2cc(-c3ccncc3)c(-c3ccc(F)cc3)[nH]2)CC1 [Compound 1, 4-[2-(4-fluorophenyl)-5-(1-methylpiperidine-4-yl)-1H-pyrrol-3-yl]pyridine] | – | – | – | – | – | – | – | – | – | – | – | – | – | potent inducer of bradyzoite-specific antigen 1 | dramatically slow the replication |
